Measurements taken from patent publication US20100273696A1, “Composition and method for the prevention and removal of unwanted paint on a surface” (priority 2009, published 2010).

What was measured:
[1] = Toxicity (hazard class) of possible ingredients; settings: hazard symbol or 'none'
[2] = Solubility in water of possible ingredients; assay type: physicochemical

CCOC(=O)CC(CC(C)=O)C(=O)OCC (centres unmarked) [diethyl acetonyl succinate]
Toxicity [1]: none

COC(C)COC(C)CO (centres unmarked) [dipropylene glycol monomethyl ether]
Solubility in H2O ([2]; result in words): complete
Toxicity [1]: none

COCCOCCOCCOCCOC [tetraethylene glycol dimethyl ether]
Solubility in H2O ([2]; result in words): complete
Toxicity [1]: none

CCCCOC(C)COC(C)COC(C)CO (centres unmarked) [tripropylene glycol monobutyl ether]
Toxicity [1]: none

COCCOCCOCCOCCO [tetraethylene glycol monomethyl ether]
Solubility in H2O ([2]; result in words): complete
Toxicity [1]: none

COCCOCCOCCOC [triethylene glycol dimethyl ether]
Solubility in H2O ([2]; result in words): complete
Toxicity [1]: none

COCCOCCOCCO [triethylene glycol monomethyl ether]
Toxicity [1]: none

COCC(C)OCC(C)OC (centres unmarked) [dipropylene glycol dimethyl ether]
Solubility in H2O ([2]; result in words): complete
Toxicity [1]: none

CCCOCCOCCO [diethylene glycol monopropyl ether]
Solubility in H2O ([2]; result in words): complete
Toxicity [1]: none

O=C1CCCO1 [γ-butyrolactone]
Solubility in H2O ([2]; result in words): complete

COCCOCCOC [diethylene glycol dimethyl ether]
Solubility in H2O ([2]; result in words): complete

COC(C)COC(C)COC(C)CO (centres unmarked) [tripropylene glycol monomethyl ether]
Solubility in H2O ([2]; result in words): complete
Toxicity [1]: none

CCCCOCCOCCO [diethylene glycol monobutyl ether]
Solubility in H2O ([2]; given as percent): 10%

CCCOC(C)COC(C)CO (centres unmarked) [dipropylene glycol monopropyl ether]
Solubility in H2O ([2]; result in words): complete
Toxicity [1]: none

CC1COC(=O)O1 (centres unmarked) [propylene carbonate]
Solubility in H2O ([2]; given as percent): 24%

octyl ethercarboxylic acid (8 EO)
Solubility in H2O ([2]; result in words): complete
Toxicity [1]: none

lauryl ethercarboxylic acid (10 EO)
Solubility in H2O ([2]; result in words): complete
Toxicity [1]: none

CCOC(C)COC(C)CO (centres unmarked) [dipropylene glycol monoethyl ether]
Solubility in H2O ([2]; result in words): complete
Toxicity [1]: none

COCCOCCO [diethylene glycol monomethyl ether]
Solubility in H2O ([2]; result in words): complete

C[S+](C)[O-] [dimethyl sulfoxide]
Solubility in H2O ([2]; result in words): complete
Toxicity [1]: none

CN1CCCC1=O [N-methyl-2-pyrrolidinone]
Solubility in H2O ([2]; result in words): complete

CCCCOCCOCCOCCCC [diethylene glycol dibutyl ether]
Solubility in H2O ([2]; given as percent): 0.3%

CCOCCOCCO [diethylene glycol monoethyl ether]
Solubility in H2O ([2]; result in words): complete
Toxicity [1]: none

O=C1OCCO1 [ethylene carbonate]
Toxicity [1]: none

CCCOCCOCCOCCC [diethylene glycol dipropyl ether]
Solubility in H2O ([2]; result in words): complete
Toxicity [1]: none

CCCCOCCOCCOC(C)=O [[2-(2-butoxyethoxy)-ethyl]-acetate]
Solubility in H2O ([2]; given as percent): 6.5%
Toxicity [1]: none

COC(=O)CCC(=O)OC [dimethyl succinate]
Solubility in H2O ([2]; given as percent): 7.5%

PEG-8 Oleate
Toxicity [1]: none

CCOCCOCCOCC [diethylene glycol diethyl ether]
Solubility in H2O ([2]; result in words): complete
Toxicity [1]: none

oleyl ethercarboxylic acid (9 EO)
Solubility in H2O ([2]; result in words): complete
Toxicity [1]: none
